The target of this assay is T1, autotaxin (ATX, ENPP2) (Mus musculus, UniProt Q9R1E6).
T1 construct: recombinant ATX; mouse ENPP proteins expressed in HEK293A cells (culture supernatants)
Description: colorimetric phosphodiesterase assay with p-nitrophenyl TMP as substrate. In kind it is biochemical.

This note sets out measurements from PMC5509998, “Autotaxin–lysophosphatidic acid–LPA 3 signaling at the embryo‐epithelial boundary controls decidualization pathways” (The EMBO Journal, 2017).

What is called IC50 is the concentration needed to halve the response being measured. Low values mean inhibition by little substance, high ones a need for much substance. On to `CCCCCn1c(-c2ccc(C(=O)NCCN3CCOCC3)cc2)cc(=O)n2cc(-c3ccc(Cl)cc3)nc12` [S15-00826], for which the half-maximal inhibitory concentration (IC50) was around 38 nM.
